Laboratory results as given in ChEMBL document CHEMBL1201862, “PubChem BioAssay data set” (2004).
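The compound was tested at five concentrations on cells cultured in 96-well plates, with a 48-hour exposure period. Here, GI50 denotes the concentration required for 50% inhibition of growth.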 Calls of active or inactive are those of the source. Cut-off read from the data, not from the text of the source: active = GI50 up to about 1.1 µM and inactive = higher.

Experiments:
Test in all cases: NCI anticancer screen, dose series, 48 h
SK-OV-3 = system: SK-OV-3
IGROV-1 = system: IGROV-1
U-251 = system: U-251
OVCAR-3 = system: OVCAR-3
A549 = system: A549
SF-268 = system: SF-268
SR = system: SR
RPMI-8226 = system: RPMI-8226
MDA-MB-435 = system: MDA-MB-435
DU-145 = system: DU-145
MOLT-4 = system: MOLT-4
EKVX = system: EKVX
786-0 = system: 786-0
NCI-H23 = system: NCI-H23
HL-60 = system: HL-60
HCC 2998 = system: HCC 2998
NCI-H226 = system: NCI-H226
BT-549 = system: BT-549
SK-MEL-2 = system: SK-MEL-2
HT-29 = system: HT-29
ACHN = system: ACHN
MCF7 = system: MCF7
COLO 205 = system: COLO 205
TK-10 = system: TK-10
SN12C = system: SN12C
HOP-92 = system: HOP-92
PC-3 = system: PC-3
SF-295 = system: SF-295
NCI-H522 = system: NCI-H522
SNB-75 = system: SNB-75
OVCAR-5 = system: OVCAR-5
RXF 393 = system: RXF 393
KM12 = system: KM12
SF-539 = system: SF-539
OVCAR-8 = system: OVCAR-8
SK-MEL-28 = system: SK-MEL-28
CAKI-1 = system: CAKI-1
HCT-15 = system: HCT-15
UACC-257 = system: UACC-257
OVCAR-4 = system: OVCAR-4
NCI-H460 = system: NCI-H460
UO-31 = system: UO-31
A498 = system: A498
MDA-MB-231 = system: MDA-MB-231
HCT-116 = system: HCT-116
LOX IMVI = system: LOX IMVI
M14 = system: M14
T47D = system: T47D
NCI/ADR-RES = system: NCI/ADR-RES
SK-MEL-5 = system: SK-MEL-5
HOP-62 = system: HOP-62
K562 = system: K562
UACC-62 = system: UACC-62

N#Cc1nc(C(CO)N(Cc2ccccc2)C(=O)O)oc1N (stereo not drawn)
GI50 (SK-OV-3): > 100 µM (inactive)
GI50 (IGROV-1): > 100 µM (inactive)
GI50 (U-251): > 100 µM (inactive)
GI50 (OVCAR-3): > 100 µM (inactive)
GI50 (A549): > 100 µM (inactive)
GI50 (SF-268): > 100 µM (inactive)
GI50 (SR): > 100 µM (inactive)
GI50 (RPMI-8226): > 100 µM (inactive)
GI50 (MDA-MB-435): > 100 µM (inactive)
GI50 (DU-145): > 100 µM (inactive)
GI50 (MOLT-4): > 100 µM (inactive)
GI50 (EKVX): > 100 µM (inactive)
GI50 (786-0): > 100 µM (inactive)
GI50 (NCI-H23): > 100 µM (inactive)
GI50 (HL-60): > 100 µM (inactive)
GI50 (HCC 2998): > 100 µM (inactive)
GI50 (NCI-H226): > 100 µM (inactive)
GI50 (BT-549): > 100 µM (inactive)
GI50 (SK-MEL-2): > 100 µM (inactive)
GI50 (HT-29): > 100 µM (inactive)
GI50 (ACHN): > 100 µM (inactive)
GI50 (MCF7): > 100 µM (inactive)
GI50 (COLO 205): > 100 µM (inactive)
GI50 (TK-10): > 100 µM (inactive)
GI50 (SN12C): > 100 µM (inactive)
GI50 (HOP-92): > 100 µM (inactive)
GI50 (PC-3): > 100 µM (inactive)
GI50 (SF-295): > 100 µM (inactive)
GI50 (NCI-H522): 12.4 µM (inactive)
GI50 (SNB-75): > 100 µM (inactive)
GI50 (OVCAR-5): > 100 µM (inactive)
GI50 (RXF 393): > 100 µM (inactive)
GI50 (KM12): > 100 µM (inactive)
GI50 (SF-539): > 100 µM (inactive)
GI50 (OVCAR-8): > 100 µM (inactive)
GI50 (SK-MEL-28): > 100 µM (inactive)
GI50 (CAKI-1): > 100 µM (inactive)
GI50 (HCT-15): > 100 µM
GI50 (UACC-257): > 100 µM (inactive)
GI50 (OVCAR-4): > 100 µM (inactive)
GI50 (NCI-H460): > 100 µM (inactive)
GI50 (UO-31): > 100 µM (inactive)
GI50 (A498): > 100 µM (inactive)
GI50 (MDA-MB-231): > 100 µM (inactive)
GI50 (HCT-116): > 100 µM (inactive)
GI50 (LOX IMVI): > 100 µM (inactive)
GI50 (M14): > 100 µM (inactive)
GI50 (T47D): > 100 µM (inactive)
GI50 (NCI/ADR-RES): > 100 µM (inactive)
GI50 (SK-MEL-5): > 100 µM (inactive)
GI50 (HOP-62): > 100 µM (inactive)
GI50 (K562): > 100 µM (inactive)
GI50 (UACC-62): > 100 µM (inactive)
